Where a name gives a salt, the structure may show the parent alone.
Tested on: Acinetobacter baumannii ATCC 17961
Assay: Antimicrobial susceptibility testing: 90% growth inhibitory concentration (IC90) determination
Format: cell-based
Conditions: ATCC17961, Acinetobacter baumannii ATCC 17961, Iso-Sensitest broth, read-out: ATCC 17961 IC90
Method in brief: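 Growth was followed kinetically by OD600 at 20-min intervals for 16 h at 35±2 °C, with ~5×10^5 CFU/ml in Iso-Sensitest broth. Compounds were tested as twofold dilutions (e.g. 50–0.097 μM final). The concentration giving 90% inhibition of log-phase growth was reported.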

| Compound | IC90 [nM] |
| --- | --- |
| Cn1cc(-c2cnc(C(=O)Nc3ccc(C(=O)N4CCN(C(=O)C5(O)CCNCC5)CC4)c(Cl)c3)n2C)c(C(F)(F)F)n1 [Example 56, N-[3-Chloro-4-[4-(4-hydroxypiperidine-4-carbonyl)piperazine-1-carbonyl]phenyl]-1-methyl-5-[1-methyl-3-(trifluoromethyl)pyrazol-4-yl]imidazole-2-carboxamide 2,2,2-trifluoroacetate] | 1510 |
| Cn1c(-c2cn(CC3CC3(F)F)nc2C(F)(F)F)cnc1C(=O)Nc1ccc(C(=O)N2CCN(C(=O)C3CCNCC3)CC2)c(Cl)c1 (centres unmarked) [Example 110, N-[3-chloro-4-[4-(piperidine-4-carbonyl)piperazine-1-carbonyl]phenyl]-5-[1-[(2,2-difluorocyclopropyl)methyl]-3-(trifluoromethyl)pyrazol-4-yl]-1-methylimidazole-2-carboxamide;hydrochloride] | 260 |
| Cn1c(-c2cn(CC(F)(F)F)nc2C(F)(F)F)cnc1C(=O)Nc1ccc(C(=O)N2CCN(C(=O)C3CCNCC3)CC2)c(Cl)c1 [Example 2, N-(3-Chloro-4-(4-(piperidine-4-carbonyl)piperazine-1-carbonyl)phenyl)-1-methyl-5-(1-(2,2,2-trifluoroethyl)-3-(trifluoromethyl)-1H-pyrazol-4-yl)-1H-imidazole-2-carboxamide Hydrochloride] | 399 |
| C=C(F)Cn1cc(-c2cnc(C(=O)Nc3ccc(C(=O)N[C@H]4[C@@H]5CN(C(=O)N[C@@H]6CNC[C@H]6O)C[C@@H]54)c(Cl)c3)n2C)c(C(F)(F)F)n1 [Example 176, (1R,5S,6s)-6-(2-chloro-4-(5-(1-(2-fluoroallyl)-3-(trifluoromethyl)-1H-pyrazol-4-yl)-1-methyl-1H-imidazole-2-carboxamido)benzamido)-N-(trans-4-hydroxypyrrolidin-3-yl)-3-azabicyclo[3.1.0]hexane-3-carboxamide Formate] | 155 |

Further lines, results first:

| IC90 [nM] | Compound |
| --- | --- |
| 180 | Cn1c(-c2cn(C3CC3(F)F)nc2C(F)(F)F)cnc1C(=O)Nc1ccc(C(=O)NC2[C@H]3CN(C(=O)N4CC[C@@H](N)C4)C[C@@H]23)c(Cl)c1 (mixture of isomers) [Example 192, N-[4-[[cis-3-[(3R)-3-aminopyrrolidine-1-carbonyl]-3-azabicyclo[3.1.0]hexan-6-yl]carbamoyl]-3-chlorophenyl]-5-[1-(2,2-difluorocyclopropyl)-3-(trifluoromethyl)pyrazol-4-yl]-1-methylimidazole-2-carboxamide, formate salt] |
| 234 | Cn1c(-c2cn(C3CC3)nc2C(F)(F)F)cnc1C(=O)Nc1ccc(C(=O)N2CCN(C(=O)[C@H]3[C@@H]4CNC[C@@H]43)CC2)c(Cl)c1 [Example 383, N-[3-chloro-4-[4-[rac-(1R,5S)-3-azabicyclo[3.1.0]hexane-6-carbonyl]piperazine-1-carbonyl]phenyl]-5-[1-cyclopropyl-3-(trifluoromethyl)pyrazol-4-yl]-1-methylimidazole-2-carboxamide;hydrochloride] |
| 213 | C=C(C)Cn1cc(-c2cnc(C(=O)Nc3ccc(C(=O)NCCCCN)c(Cl)c3)n2C)c(C(F)(F)F)n1 [Example 199, N-(4-((4-aminobutyl)carbamoyl)-3-chlorophenyl)-1-methyl-5-(1-(2-methylallyl)-3-(trifluoromethyl)-1H-pyrazol-4-yl)-1H-imidazole-2-carboxamide tris(2,2,2-trifluoroacetate)] |
| 482 | Cn1c(-c2cn(CC(F)F)nc2C(F)F)cnc1C(=O)Nc1ccc(C(=O)N2CCN(C(=O)[C@H]3[C@@H]4CNC[C@@H]43)CC2)c(Cl)c1 [Example 364, N-(4-(4-((1R,5S,6r)-3-azabicyclo[3.1.0]hexane-6-carbonyl)piperazine-1-carbonyl)-3-chlorophenyl)-5-(1-(2,2-difluoroethyl)-3-(difluoromethyl)-1H-pyrazol-4-yl)-1-methyl-1H-imidazole-2-carboxamide formate] |

From patent US11390604B2 (Hoffmann-La Roche Inc., priority 2019, dated 2022)
